These results are taken from patent US4427668A, “26-Hydroxycholesterol and derivatives and analogs thereof in regulation of cholesterol accumulation in body tissue” (New York University, priority 1982, dated 1984).

Test [1] deals with HMG-CoA reductase. The conditions noted are these: 2.5 μM, 5 hours; Chang et al, J. Biol. Chem. 256:6304 (1981); cited from earlier work.
The test system of test [2] is HMG-CoA reductase. Put plainly: HMG-CoA reductase activity in Chinese hamster ovary (CHO-K1) cell culture, as mevalonate formed. The conditions noted are these: CHO-K1 cells. The format is cell-based. The method, then: The effect of 26-hydroxycholesterol on HMG-CoA reductase activity was determined using the procedures of Chang et al, J. Biol. Chem. 256:6304 (1981). Chinese hamster ovary cells, CHO-Kl cells (also referred to as wild type) were obtained from the American Type Culture Collection and grown in Falcon flasks on Ham's F-12 media containing 10% fetal calf serum. Approximately 21/2 days after cells were removed from the stock flask cultures and seeded into petri dishes (60 mm), each containing 0.03×10^6 cells, they were rinsed with phosphate-buffered saline (PBS) and then grown in F-12 media containing 10% delipidated fetal calf serum for 48 hours with one change of media. Following this, either fresh media (still with delipidated calf serum) or fresh media containing 0.14% DMSO alone or 26-hydroxycholesterol was added and the cells incubated for varying periods of time. Our final concentration of DMSO was less than Chang (0.14% vs. 0.3%) and comparison of HMG-CoA reductase activity at 5 hours with media not containing DMSO gives the same or slightly higher (not significant) values. Under these conditions, over 50% inhibition has been obtained using the 0.25 μM concentration of 26-hydroxycholesterol and incubating for 5 hours. Not only is the mean highly significant but none of the individual control flasks overlap with the individual flasks containing 26-hydroxycholesterol. Using a concentration 10 X greater (2.5 μM) of 25-hydroxycholesterol, Chang reported 80% inhibition at 5 hours. Table 1 below sets forth average results of this experiment when carried out on a single day. […] HMG-CoA reductase activity was determined using the double-label technique of Pitot et al, J. Lipid Res. 12:512 (1971) and the thin-layer separation of Shapiro et al, Anal. Biochem. 31:383 (1969). […] The mevalonlactone is separated by thin-layer chromatography and the ^14 C/^3 H ratio determined from which the total amount of ^14 C can be calculated (corrected for ^3 H recovered) and expressed per mg of cytosolic protein by the Lowry method.

Regarding `C[C@H](CCCC(C)(C)O)[C@H]1CC[C@H]2[C@@H]3CC=C4C[C@@H](O)CC[C@]4(C)[C@H]3CC[C@]12C` [25-hydroxycholesterol], the “inhibition of HMG-CoA reductase activity reported by Chang” value with HMG-CoA reductase [1] is recorded as 80%.

`C[C@@H](CO)CCC[C@@H](C)[C@H]1CC[C@H]2[C@@H]3CC=C4C[C@@H](O)CC[C@]4(C)[C@H]3CC[C@]12C` [26-hydroxycholesterol]: the “% Inhibition of HMG-CoA reductase activity” value in the test on HMG-CoA reductase [2] (0.25 μM in 0.14% DMSO, 5 hours incubation, average of a single day) is reported as 65%. In addition, the “HmG Co-A Reductase Activity (as mevalonate formed)” value in the test on HMG-CoA reductase [2] (0.25 μM in 0.14% DMSO, 5 hours incubation, DMSO control 0.048) worked out at 0.017 nMol/min/mg protein. For the same compound, the “inhibition of HMG-CoA reductase activity” value in the test with HMG-CoA reductase [2] (0.25 μM, incubating for 5 hours) is given as “over 50%”.
